The source of these data is patent publication US20100286260A1, “MILNACIPRAN FORMULATIONS” (priority 2009, published 2010).

Data set [1] can be described thus: Conversion to cyclic degradation product F1612 in 0.1 M pH 9.0 buffer at 50° C. The class given is physicochemical. Conditions: 50° C. and pH 9.0. The protocol: Milnacipran hydrochloride was exposed to 0.1 M pH 9.0 buffer (glycine-NaOH) at 50° C. in a closed glass flask for several days.
The format of data set [2] is physicochemical. The source says: (§1) Milnacipran can be easily processed in solvent state with conventional binder such as Povidone. However, in aqueous state the milnacipran has some unusual properties which present difficulties in drug layering approach. […] In exemplary embodiments, the PEG functions as a co-binder, anti-tacking agent, plasticizer to HPMC and as an eraser to the drug's deliquescent property.

The next data set is described as follows: Deliquescence. The class given is physicochemical. The settings on record: room temperature.
Excerpt: as §1

Another data set concerns uptake of dopamine. The settings on record: cited from earlier work.

Structures are written as SMILES.

`CCN(CC)C(=O)C1(c2ccccc2)CC1CN` (stereo not shown) [Milnacipran, milnacipran]: the “formation of the cyclic degradation product” value in data set [1] is reported as “rapid formation”. Also, the solubility in water entry in data set [2] was “highly soluble”. Further, the “deliquescent at RH” value in “Deliquescence” is recorded as 75-80 % RH. In the data set on uptake of dopamine, the “effect on the uptake of dopamine” value was “does not affect”.
